Laboratory results reported in ChEMBL document CHEMBL5576052, “Design, synthesis, and biological evaluation of new bis-benzylisoquinoline-based analogues as potential neuromuscular blocking agents” (Bioorg Med Chem Lett, 2024).

Assays:
Format in all cases: functional
Oryctolagus cuniculus [1] = assay: Neuromuscular blocking in rabbit model of propofol-induced anesthesia assessed as onset time at 272.7 nmol/kg by train-of-four response method
Oryctolagus cuniculus [2] = assay: Neuromuscular blocking in rabbit model of propofol-induced anesthesia assessed as maximal blockade at 272.7 nmol/kg by train-of-four response method relative to control
Oryctolagus cuniculus [3] = assay: Neuromuscular blocking in rabbit model of propofol-induced anesthesia assessed as duration of time for maximal blockade at 272.7 nmol/kg by train-of-four response method
Oryctolagus cuniculus [4] = assay: Neuromuscular blocking in rabbit model of propofol-induced anesthesia assessed as effective blocking time by measuring duration from administration to 25 percent recovery at 272.7 nmol/kg by train-of-four response method
Oryctolagus cuniculus [5] = assay: Neuromuscular blocking in rabbit model of propofol-induced anesthesia assessed as time duration of 25 to 75 percent recovery indices at 272.7 nmol/kg by train-of-four response method
Oryctolagus cuniculus [6] = assay: Neuromuscular blocking in rabbit model of propofol-induced anesthesia assessed as time duration of 25 to 90 percent recovery indices at 272.7 nmol/kg by train-of-four response method
Oryctolagus cuniculus [7] = assay: Neuromuscular blocking in rabbit model of propofol-induced anesthesia assessed as onset time at 27.27 nmol/kg by train-of-four response method
Oryctolagus cuniculus [8] = assay: Neuromuscular blocking in rabbit model of propofol-induced anesthesia assessed as maximal blockade at 27.27 nmol/kg by train-of-four response method relative to control
Oryctolagus cuniculus [9] = assay: Neuromuscular blocking in rabbit model of propofol-induced anesthesia assessed as duration of time for maximal blockade at 27.27 nmol/kg by train-of-four response method
Oryctolagus cuniculus [10] = assay: Neuromuscular blocking in rabbit model of propofol-induced anesthesia assessed as effective blocking time by measuring duration from administration to 25 percent recovery at 27.27 nmol/kg by train-of-four response method
Oryctolagus cuniculus [11] = assay: Neuromuscular blocking in rabbit model of propofol-induced anesthesia assessed as time duration of 25 to 75 percent recovery indices at 27.27 nmol/kg by train-of-four response method
Oryctolagus cuniculus [12] = assay: Neuromuscular blocking in rabbit model of propofol-induced anesthesia assessed as time duration of 25 to 90 percent recovery indices at 27.27 nmol/kg by train-of-four response method

| Compound | Time (Oryctolagus cuniculus [1]) [min] | Emax at 0.2727 µmol/kg (Oryctolagus cuniculus [2]) [%] | Time (Oryctolagus cuniculus [3]) [min] | Time (Oryctolagus cuniculus [4]) [min] | Time (Oryctolagus cuniculus [5]) [min] | Time (Oryctolagus cuniculus [6]) [min] | Time (Oryctolagus cuniculus [7]) [min] | Emax at 0.02727 µmol/kg (Oryctolagus cuniculus [8]) [%] | Time (Oryctolagus cuniculus [9]) [min] | Time (Oryctolagus cuniculus [10]) [min] | Time (Oryctolagus cuniculus [11]) [min] | Time (Oryctolagus cuniculus [12]) [min] |
| --- | --- | --- | --- | --- | --- | --- | --- | --- | --- | --- | --- | --- |
| CC[N+]1(CCCOC(=O)CC/C=C/CCC(=O)OCCC[N+]2(CC)CCc3cc(OC)c(OC)cc3[C@H]2Cc2cc(OC)c(OC)c(OC)c2)CCc2cc(OC)c(OC)cc2[C@H]1Cc1cc(OC)c(OC)c(OC)c1.[Cl-].[Cl-] (some centres not stated) | 0.75 | 100 | 11.75 | 14 | 6.42 | 9.67 |  |  |  |  |  |  |
| COc1cc2c(cc1OC)[C@@H](Cc1cc(OC)c(OC)c(OC)c1)[N+](C)(CCC(=O)OCC(C)(C)COC(=O)CC[N+]1(C)CCc3cc(OC)c(OC)cc3[C@H]1Cc1cc(OC)c(OC)c(OC)c1)CC2 (some centres not stated) |  | 0 |  |  |  |  |  |  |  |  |  |  |
| COc1cc2c(cc1OC)[C@@H](Cc1cc(OC)c(OC)c(OC)c1)[N+](C)(CCC(=O)OCC(F)(F)COC(=O)CC[N+]1(C)CCc3cc(OC)c(OC)cc3[C@H]1Cc1cc(OC)c(OC)c(OC)c1)CC2 (some centres not stated) |  | 0 |  |  |  |  |  |  |  |  |  |  |
| COc1cc2c(cc1OC)[C@@H](Cc1cc(OC)c(OC)c(OC)c1)[N+](C)(CCCOC(=O)CCCC(=O)OCCC[N+]1(C)CCc3cc(OC)c(OC)cc3[C@H]1Cc1cc(OC)c(OC)c(OC)c1)CC2.[Cl-].[Cl-] (some centres not stated) | 0.75 | 100 | 66.5 | 73.08 | 7.67 | 12 | 2.58 | 100 | 8.08 | 11.67 | 7.75 | 11.77 |
| C=CC[N+]1(CCCOC(=O)CC/C=C/CCC(=O)OCCC[N+]2(CC=C)CCc3cc(OC)c(OC)cc3[C@H]2Cc2cc(OC)c(OC)c(OC)c2)CCc2cc(OC)c(OC)cc2[C@H]1Cc1cc(OC)c(OC)c(OC)c1 (some centres not stated) |  | 92 |  |  |  |  |  |  |  |  |  |  |
| COc1cc2c(cc1OC)[C@@H](Cc1cc(OC)c(OC)c(OC)c1)[N+](C)(CCCOC(=O)CCCCC(=O)OCCC[N+]1(C)CCc3cc(OC)c(OC)cc3[C@H]1Cc1cc(OC)c(OC)c(OC)c1)CC2.[Cl-].[Cl-] (some centres not stated) | 0.63 | 100 | 35 | 38 | 6.38 | 8.13 | 2.75 | 100 | 2 | 5.17 | 9.67 | 11.67 |
| COc1cc2c(cc1OC)[C@@H](Cc1cc(OC)c(OC)c(OC)c1)[N+](C)(CCC(=O)OCCCCCCOC(=O)CC[N+]1(C)CCc3cc(OC)c(OC)cc3[C@H]1Cc1cc(OC)c(OC)c(OC)c1)CC2.O=S(=O)([O-])c1ccccc1.O=S(=O)([O-])c1ccccc1 (some centres not stated) | 1 | 100 | 44.92 | 49.83 | 9.92 | 12.17 |  |  |  |  |  |  |
| COc1cc2c(cc1OC)[C@@H](Cc1cc(OC)c(OC)c(OC)c1)[N@+](CCCOC(=O)CC/C=C/CCC(=O)OCCC[N@@+]1(CC3CCC3)CCc3cc(OC)c(OC)cc3[C@H]1Cc1cc(OC)c(OC)c(OC)c1)(CC1CCC1)CC2.[Cl-].[Cl-] | 2 | 100 | 8.5 | 15.38 | 8.92 | 15.17 |  |  |  |  |  |  |
| COc1cc2c(cc1OC)[C@@H](Cc1cc(OC)c(OC)c(OC)c1)[N+](CCCOC(=O)CC/C=C/CCC(=O)OCCC[N+]1(CC3CC3)CCc3cc(OC)c(OC)cc3[C@H]1Cc1cc(OC)c(OC)c(OC)c1)(CC1CC1)CC2.[Cl-].[Cl-] (some centres not stated) | 1.25 | 100 | 3.67 | 5.17 | 6.83 | 9.58 |  |  |  |  |  |  |
| COc1cc2c(cc1OC)[C@@H](Cc1cc(OC)c(OC)c(OC)c1)[N+](C)(CCC(=O)OCC#CC#CCOC(=O)CC[N+]1(C)CCc3cc(OC)c(OC)cc3[C@H]1Cc1cc(OC)c(OC)c(OC)c1)CC2.O=S(=O)([O-])c1ccccc1.O=S(=O)([O-])c1ccccc1 (some centres not stated) | 1.42 | 100 | 4.75 | 5.83 | 6.92 | 12 |  |  |  |  |  |  |
| COc1cc2c(cc1OC)[C@@H](Cc1cc(OC)c(OC)c(OC)c1)[N@@+](C)(CCCOC(=O)CC/C=C/CCC(=O)OCCC[N@@+]1(C)CCc3cc(OC)c(OC)cc3[C@H]1Cc1cc(OC)c(OC)c(OC)c1)CC2 |  | 0 |  |  |  |  |  |  |  |  |  |  |
| COc1cc2c(cc1OC)[C@@H](Cc1cc(OC)c(OC)c(OC)c1)[N+](C)(CCCOC(=O)CC(C)(C)CC(=O)OCCC[N+]1(C)CCc3cc(OC)c(OC)cc3[C@H]1Cc1cc(OC)c(OC)c(OC)c1)CC2.[Cl-].[Cl-] (some centres not stated) | 1.25 | 100 | 18.75 | 21.58 | 9.92 | 12.58 |  |  |  |  |  |  |
| COc1cc2c(cc1OC)[C@@H](Cc1cc(OC)c(OC)c(OC)c1)[N+](C)(CCC(=O)OCCCCOC(=O)CC[N+]1(C)CCc3cc(OC)c(OC)cc3[C@H]1Cc1cc(OC)c(OC)c(OC)c1)CC2.O=S(=O)([O-])c1ccccc1.O=S(=O)([O-])c1ccccc1 (some centres not stated) | 1.25 | 100 | 18.58 | 23.08 | 8.17 | 13.67 |  |  |  |  |  |  |
| CC[N@+]1(CCCOC(=O)CC/C=C/CCC(=O)OCCC[N@@+]2(CC)CCc3cc(OC)c(OC)cc3[C@H]2Cc2cc(OC)c(OC)c(OC)c2)CCc2cc(OC)c(OC)cc2[C@H]1Cc1cc(OC)c(OC)c(OC)c1.[Cl-].[Cl-] | 1.08 | 100 | 11.58 | 14.67 | 10.58 | 15.25 |  |  |  |  |  |  |
| COc1cc2c(cc1OC)[C@@H](Cc1cc(OC)c(OC)c(OC)c1)[N+](C)(CCCOC(=O)Cc1ccc(CC(=O)OCCC[N+]3(C)CCc4cc(OC)c(OC)cc4[C@H]3Cc3cc(OC)c(OC)c(OC)c3)cc1)CC2.[Cl-].[Cl-] (some centres not stated) | 0.92 | 100 | 14.83 | 18.08 | 8 | 10.83 |  |  |  |  |  |  |
| COc1cc2c(cc1OC)[C@@H](Cc1cc(OC)c(OC)c(OC)c1)[N+](C)(CCC(=O)OCCCOC(=O)CC[N+]1(C)CCc3cc(OC)c(OC)cc3[C@H]1Cc1cc(OC)c(OC)c(OC)c1)CC2.O=S(=O)([O-])c1ccccc1.O=S(=O)([O-])c1ccccc1 (some centres not stated) | 1.08 | 100 | 7.58 | 9.75 | 7.92 | 9.83 |  |  |  |  |  |  |
| COc1cc2c(cc1OC)[C@@H](Cc1cc(OC)c(OC)c(OC)c1)[N+](C)(CCCOC(=O)c1ccccc1-c1ccccc1C(=O)OCCC[N+]1(C)CCc3cc(OC)c(OC)cc3[C@H]1Cc1cc(OC)c(OC)c(OC)c1)CC2 (some centres not stated) |  | 0 |  |  |  |  |  |  |  |  |  |  |
| COc1cc2c(cc1OC)[C@@H](Cc1cc(OC)c(OC)c(OC)c1)[N+](C)(CCC(=O)OCC#CCOC(=O)CC[N+]1(C)CCc3cc(OC)c(OC)cc3[C@H]1Cc1cc(OC)c(OC)c(OC)c1)CC2 (some centres not stated) |  | 85 |  |  |  |  |  |  |  |  |  |  |
| COc1cc2c(cc1OC)[C@@H](Cc1cc(OC)c(OC)c(OC)c1)[N@+](CCCOC(=O)CC/C=C/CCC(=O)OCCC[N@@+]1(CC3CC3)CCc3cc(OC)c(OC)cc3[C@H]1Cc1cc(OC)c(OC)c(OC)c1)(CC1CC1)CC2.[Cl-].[Cl-] | 2 | 45 | 2.5 |  | 5 | 7.87 |  |  |  |  |  |  |
| C=CC[N@+]1(CCCOC(=O)CC/C=C/CCC(=O)OCCC[N@@+]2(CC=C)CCc3cc(OC)c(OC)cc3[C@H]2Cc2cc(OC)c(OC)c(OC)c2)CCc2cc(OC)c(OC)cc2[C@H]1Cc1cc(OC)c(OC)c(OC)c1.[Cl-].[Cl-] | 1.42 | 100 | 4.75 | 6.92 | 13.25 | 21.83 |  |  |  |  |  |  |
| COc1cc2c(cc1OC)[C@@H](Cc1cc(OC)c(OC)c(OC)c1)[N+](C)(CCC(=O)OC/C(Br)=C(\Br)COC(=O)CC[N+]1(C)CCc3cc(OC)c(OC)cc3[C@H]1Cc1cc(OC)c(OC)c(OC)c1)CC2.O=S(=O)([O-])c1ccccc1.O=S(=O)([O-])c1ccccc1 (some centres not stated) | 1 | 100 | 8.75 | 9.75 | 6.83 | 10.92 |  |  |  |  |  |  |
